One may read the IC50 as the concentration that inhibits the measured activity by half.

One experiment concerns the target COX-2. In words: Evaluation of COX-2 activity in vitro (PGE2 ELISA, recombinant enzyme). It counts as biochemical, human or murine. The conditions noted are these: arachidonic acid 10 μM, pH 8.0, pre-incubation 10-20 minutes. As for the experimental part:
The COX-2 inhibition activity of the compounds of this invention illustrated in the Examples was determined by the following methods.
(§1) a. Preparation of recombinant COX baculoviruses
(§2) Recombinant COX-1 and COX-2 were prepared as scribed by Gierse et al, [J. Biochem., 305, 479-84 (1995)]. […] Recombinant baculoviruses were isolated by transfecting 4 μg of baculovirus transfer vector DNA into SF9 insect cells (2×10^8) along with 200 ng of linearized baculovirus plasmid DNA by the calcium phosphate method. See M. D. Summers and G. E. Smith, A Manual of Methods for Baculovirus Vectors and Insect Cell Culture Procedures, Texas Agric. Exp. Station Bull. 1555 (1987). Recombinant viruses were purified by three rounds of plaque purification and high titer (10^7 -10^8 pfu/mL) stocks of virus were prepared. For large scale production, SF9 insect cells were infected in 10 liter fermentors (0.5×10^6 /mL) with the recombinant baculovirus stock such that the multiplicity of infection was 0.1. After 72 hours the cells were centrifuged and the cell pellet homogenized in Tris/Sucrose (50 mM: 25%, pH 8.0) containing 1% 3-[(3-cholamidopropyl)dimethylammonio]-1-propanesulfonate (CHAPS). The nomogenate was centrifuged at 10,000×G for 30 minutes, and the resultant supernatant was stored at -80° C. before being assayed for COX activity.
(§3) COX activity was assayed as PGE2 formed/μg protein/time using an ELISA to detect the prostaglandin released. CHAPS-solubilized insect cell membranes containing the appropriate COX enzyme were incubated in a potassium phosphate buffer (50 mM, pH 8.0) containing epinephrine, phenol, and heme with the addition of arachidonic acid (10 μM). […] Any reaction between the arachidonic acid and the enzyme was stopped after ten minutes at 37° C./room temperature by transferring 40 μl of reaction mix into 160 μl ELISA buffer and 25 μM indomethacin. The PGE2 formed was measured by standard ELISA technology (Cayman Chemical).

The next experiment deals with COX-1. Nature of the experiment: Evaluation of COX-1 activity in vitro (PGE2 ELISA, recombinant enzyme). It counts as biochemical, human or murine. The settings on record: arachidonic acid 10 μM, pH 8.0, pre-incubation 10-20 minutes. How it is done: as §1, §2, §3
For orientation: In an ELISA, binding on a coated surface is turned into a signal by an enzyme label.

On to `Cc1onc(-c2ccccc2)c1-c1ccc(S(C)(=O)=O)cc1` [Example 5, 5-Methyl-4-[4-(methylsulfonyl)phenyl]-3-phenylisoxazole], for which the half-maximal inhibitory concentration (IC50) was 4 µM at COX-2 and above 100 µM on COX-1.

In the case of `Cc1noc(-c2ccc(F)cc2)c1-c1ccc(S(N)(=O)=O)cc1` [Example 21, 4-[5-(4-fluorophenyl)-3-methylisoxazol-4-yl]benzenesulfonamide], the results for the half-maximal inhibitory concentration (IC50) on COX-2 and at COX-1 were 5.2 µM and above 100 µM, respectively.

Consider `Cc1onc(-c2ccc(Cl)c(Cl)c2)c1-c1ccc(S(N)(=O)=O)cc1` [Example 67, 4-[5-Methyl-3-(3,4-dichlorophenyl)isoxazol-4-yl]benzenesulfonamide], for which the IC50 on COX-2 is 0.3 µM; at COX-1, 36 µM.

As for `Cc1ccc(-c2noc(C(F)F)c2-c2ccc(S(N)(=O)=O)cc2)cc1` [Example 46, 4-[5-Difluoromethyl-3-(4-methylphenyl)isoxazol-4-yl]benzenesulfonamide], the results for the IC50 on COX-2 and on COX-1 were 0.5 µM and 100 µM, respectively.

On to `CCc1noc(-c2ccc(C)cc2)c1-c1ccc(S(N)(=O)=O)cc1` [Example 17, 4-[3-Ethyl-5-(4-methylphenyl)isoxazol-4-yl]benzenesulfonamide], for which the half-inhibitory concentration (IC50) on COX-2 is 2.1 µM; on COX-1, above 100 µM.

With `CSc1onc(-c2ccccc2)c1-c1ccc(S(N)(=O)=O)cc1` [Example 58, 4-[5-Methylthio-3-phenylisoxazol-4-yl]benzenesulfonamide], the IC50 on COX-2 was below 0.1 µM; at COX-1, 14 µM.

Turning to `COc1ccc(-c2noc(C)c2-c2ccc(S(N)(=O)=O)cc2)cc1F` [Example 4, 4-[3-(3-Fluoro-4-methoxyphenyl)-5-methylisoxazol-4-yl]benzenesulfonamide], the values for the IC50 on COX-2 and on COX-1 were 3 µM and above 100 µM, respectively.

In the case of `NS(=O)(=O)c1ccc(-c2c(-c3ccccc3)noc2COCC(=O)O)cc1` [Example 35, [[4-[4-(Aminosulfonyl)phenyl]-3-phenylisoxazol-5-yl]-methoxy]acetic acid], the IC50 on COX-2 is 5.1 µM; on COX-1 it was above 100 µM.

For the molecule `Cc1onc(-c2cccnc2)c1-c1ccc(S(N)(=O)=O)cc1` [Example 4e, 4-[5-methyl-3-(3-pyridyl)isoxazol-4-yl]benzenesulfonamide], the results for the IC50 on COX-2 and on COX-1 were 2 µM and above 100 µM, respectively.

`Cc1onc(-c2ccccc2)c1-c1ccc(S(=O)(=O)O)cc1` [Example 1l, 4-[5-methyl-3-phenylisoxazol-4-yl]benzenesulfonic acid]: the half-inhibitory concentration (IC50) on COX-2 was 1.5 µM; on COX-1, above 100 µM.

As to `NS(=O)(=O)c1ccc(-c2c(CC(O)c3ccc(Cl)cc3)noc2-c2ccccc2)cc1` (stereo not shown) [Example 28, 4-[3-[2-(4-Chlorophenyl)-2-hydroxyethyl]-5-phenylisoxazol-4-yl]benzenesulfonamide], the IC50 at COX-2 was 0.1 µM; at COX-1, above 100 µM.

For `NS(=O)(=O)c1ccc(-c2c(CO)noc2-c2ccccc2)cc1` [Example 25, 4-[3-Hydroxymethyl-5-phenylisoxazol-4-yl]benzenesulfonamide], the values for the IC50 at COX-2 and at COX-1 were 79 µM and above 100 µM, respectively.

As for `CCCc1noc(-c2ccccc2)c1-c1ccc(S(N)(=O)=O)cc1` [Example 16, 4-[5-Phenyl-3-propylisoxazol-4-yl]benzenesulfonamide], the IC50 on COX-2 was 3.1 µM; on COX-1, above 100 µM.

Consider `NS(=O)(=O)c1ccc(-c2c(-c3ccccc3)noc2CCCO)cc1` [Example 1o, 4-[5-(3-hydroxypropyl)-3-phenylisoxazol-4-yl]benzenesulfonamide], for which the IC50 on COX-2 is 0.1 µM; at COX-1, above 100 µM.

Take `NS(=O)(=O)c1ccc(-c2c(-c3ccccc3)noc2COCCO)cc1` [Example 60, 4-[5-(2-Hydroxyethyl)oxymethyl-3-phenylisoxazol-4-yl]benzenesulfonamide]: the IC50 at COX-2 was 0.2 µM; on COX-1 it was above 100 µM.

`Cc1onc(-c2ccncc2)c1-c1ccc(S(N)(=O)=O)cc1` [Example 4f, 4-[5-methyl-3-(4-pyridyl)-isoxazol-4-yl]benzenesulfonamide]: the IC50 on COX-2 and on COX-1 was above 100 µM throughout.

With `NS(=O)(=O)c1ccc(-c2c(-c3ccccc3)noc2CCCC(=O)O)cc1` [Example 36], the values for the IC50 on COX-2 and at COX-1 were 1.5 µM and above 100 µM, respectively.

Turning to `CCc1onc(-c2ccccc2)c1-c1ccc(S(N)(=O)=O)cc1` [Example 1a, 4-[5-ethyl-3-phenylisoxazol-4-yl]benzenesulfonamide], the values for the IC50 on COX-2 and on COX-1 were below 0.1 µM and 17.4 µM, respectively.

Regarding `Cc1onc(-c2ccc(Cl)cc2)c1-c1ccc(S(N)(=O)=O)cc1` [Example 4a, 4-[3-(4-chlorophenyl)-5-methyl-isoxazol-4-yl]benzenesulfonamide], the IC50 is below 0.1 µM at COX-2 and 90.5 µM on COX-1.

Take `NS(=O)(=O)c1ccc(-c2c(-c3ccccc3)noc2Cl)cc1` [Example 38, 4-[5-Chloro-3-phenylisoxazol-4-yl]benzenesulfonamide]: the IC50 at COX-2 was below 0.1 µM; on COX-1, above 100 µM.

With `N#Cc1onc(-c2ccccc2)c1-c1ccc(S(N)(=O)=O)cc1` [Example 37, 4-[5-Cyano-3-phenylisoxazol-4-yl]benzenesulfonamide], the IC50 is 20 µM on COX-2 and above 100 µM on COX-1.

Consider `CCc1noc(-c2ccccc2F)c1-c1ccc(S(N)(=O)=O)cc1` [Example 33, 4-[3-Ethyl-5-(2-fluorophenyl)isoxazol-4-yl]benzenesulfonamide], for which the figures for the concentration for half-maximal inhibition (IC50) on COX-2 and at COX-1 were below 0.1 µM and 26 µM, respectively.

In the case of `COc1ccc(-c2noc(C(F)F)c2-c2ccc(S(N)(=O)=O)cc2)cc1F` [Example 44, 4-[5-Difluoromethyl-3-(3-fluoro-4-methoxyphenyl)isoxazol-4-yl]benzenesulfonamide], the IC50 at COX-2 was 1.7 µM; on COX-1, above 100 µM.

As to `NS(=O)(=O)c1ccc(-c2c(-c3ccccc3)noc2CCl)cc1` [Example 1k, 4-[5-chloromethyl-3-phenylisoxazol-4-yl]benzenesulfonamide], the values for the IC50 on COX-2 and at COX-1 were below 0.1 µM and 50.7 µM, respectively.

For the molecule `NS(=O)(=O)c1ccc(-c2c(-c3ccccc3)noc2Cc2ccc(Cl)cc2)cc1` [Example 1i, 4-[5-(4-chlorophenyl)methyl-3-phenylisoxazol-4-yl]benzenesulfonamide], the IC50 is below 0.1 µM at COX-2 and 8.6 µM on COX-1.

Consider `CCCCc1onc(-c2ccccc2)c1-c1ccc(S(N)(=O)=O)cc1` [Example 1d, 4-[5-butyl-3-phenylisoxazol-4-yl]benzenesulfonamide], for which the IC50 on COX-2 was below 0.1 µM; on COX-1, 25.8 µM.

Consider `Cc1onc(-c2ccc(S(N)(=O)=O)cc2)c1-c1ccccc1` [Example 41, 4-[5-Methyl-4-phenylisoxazol-3-yl]benzenesulfonamide], for which the IC50 came to 57.5 µM on COX-2 and 81 µM at COX-1.

Turning to `CC(C)c1noc(-c2ccccc2)c1-c1ccc(S(N)(=O)=O)cc1` [Example 15, 4-[3-isopropyl-5-phenylisoxazol-4-yl]benzenesulfonamide], the figures for the IC50 on COX-2 and on COX-1 were 0.1 µM and 59 µM, respectively.

On to `CS(=O)(=O)c1ccc(-c2c(-c3ccccc3)noc2CC(=O)O)cc1` [Example 8, [4-[4-(methylsulfonyl)phenyl]-3-phenylisoxazol-5-yl]acetic acid], for which the concentration for half-maximal inhibition (IC50) at COX-2 and on COX-1 was above 100 µM throughout.

For the molecule `COCc1onc(-c2ccccc2)c1-c1ccc(S(N)(=O)=O)cc1` [Example 1n, 4-[5-methoxymethyl-3-phenylisoxazol-4-yl]benzenesulfonamide], the 50% inhibitory concentration (IC50) is below 0.1 µM at COX-2 and above 100 µM at COX-1.

For `CCCCc1noc(-c2ccccc2)c1-c1ccc(S(N)(=O)=O)cc1` [Example 18, 4-[3-Butyl-5-phenylisoxazol-4-yl]benzenesulfonamide], the IC50 is 0.6 µM on COX-2 and above 100 µM on COX-1.

In the case of `NS(=O)(=O)c1ccc(-c2c(-c3ccccc3)noc2COc2ccc(C(=O)O)cc2)cc1` [Example 51, 4-[[4-[4-(Aminosulfonyl)phenyl]-3-phenylisoxazol-5-yl]methoxy]benzoic acid], the results for the IC50 at COX-2 and at COX-1 were 19 µM and above 100 µM, respectively.

On to `COc1ccc(-c2noc(C(F)F)c2-c2ccc(S(N)(=O)=O)cc2)cc1` [Example 45, 4-[5-Difluoromethyl-3-(4-methoxyphenyl)isoxazol-4-yl]benzenesulfonamide], for which the IC50 was below 0.1 µM on COX-2 and 16 µM at COX-1.

Regarding `Cc1noc(-c2ccc(S(N)(=O)=O)cc2)c1-c1ccccc1` [Example 23, 4-[3-Methyl-4-phenylisoxazol-5-yl]benzenesulfonamide], the IC50 at COX-2 came to 0.2 µM; at COX-1, 56 µM.

`Cc1noc(-c2cccc(Cl)c2)c1-c1ccc(S(N)(=O)=O)cc1` [Example 24, 4-[5-(3-Chlorophenyl)-3-methylisoxazol-4-yl]benzenesulfonamide]: the values for the IC50 at COX-2 and at COX-1 were 8.4 µM and above 100 µM, respectively.

(Values after patent publication US5859257A, “Isoxazole compounds as cyclooxygenase inhibitors” (G. D. Searle & Co., priority 1996, dated 1999).)
